Assays:
Format in all cases: in vivo
[1] = test system: Abutilon theophrasti (ABUTH); assay: Post-emergence herbicidal efficacy at 320 g/ha, greenhouse pot test; conditions: visual rating vs untreated control after about 3 weeks
How it was run: (§1)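 Greenhouse pots, sandy loam; treated at one-leaf stage (2–3 wk post-sowing). WP/EC in water + 0.5% additive, 600 L/ha onto green parts. Visual % rating at ~3 wk vs untreated (100% = dead, 0% = as control).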

[2] = test system: Amaranthus retroflexus (AMARE); assay: as above; conditions: visual rating vs untreated control after about 3 weeks
How it was run: as §1

Bassia scoparia (KCHSC) [3] = assay: as above; conditions: visual rating vs untreated control after about 3 weeks
How it was run: as §1

Poa annua (POAAN) [4] = assay: as above; conditions: visual rating vs untreated control after about 3 weeks
How it was run: as §1

Stellaria media (STEME) [5] = assay: as above; conditions: visual rating vs untreated control after about 3 weeks
How it was run: as §1

Veronica persica (VERPE) [6] = assay: as above; conditions: 320 g/ha, visual rating vs untreated control after about 3 weeks
How it was run: as §1

[7] = test system: Amaranthus retroflexus (AMARE); assay: Post-emergence herbicidal efficacy at 80 g/ha, greenhouse pot test; conditions: visual rating vs untreated control after about 3 weeks
How it was run: (§2)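 Sown in sandy loam, treated 2–3 weeks after sowing at one-leaf stage with WP or EC formulations sprayed post-emergence in water (600 l/ha) plus 0.5% additive. Kept in greenhouse ~3 weeks, then activity scored visually vs untreated controls (100% = plants dead, 0% = like control).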

Setaria viridis (SETVI) [8] = assay: as above; conditions: visual rating vs untreated control after about 3 weeks
How it was run: as §2

[9] = test system: Abutilon theophrasti (ABUTH); assay: Pre-emergence herbicide efficacy at 320 g/ha, greenhouse pot test; conditions: visual scoring vs untreated control after about 3 weeks
How it was run: (§3)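 Pre-emergence, greenhouse: sandy loam pots, seeds covered with soil; compound as WP/EC in water + 0.5% additive, 600 L/ha spray volume onto covering soil. Readout: visual % effect at ~3 wk vs untreated (100% = dead, 0% = as control).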

[10] = test system: Amaranthus retroflexus (AMARE); assay: as above; conditions: visual scoring vs untreated control after about 3 weeks
How it was run: as §3

Bassia scoparia (KCHSC) [11] = assay: as above; conditions: dosage 1280 g/ha in Table C6, visual scoring after about 3 weeks
How it was run: as §3

[12] = test system: Echinochloa crus-galli (ECHCG); assay: as above; conditions: visual scoring vs untreated control after about 3 weeks
How it was run: as §3

[13] = test system: Matricaria inodora (MATIN); assay: as above; conditions: visual scoring vs untreated control after about 3 weeks
How it was run: as §3

Poa annua (POAAN) [14] = assay: as above; conditions: visual scoring vs untreated control after about 3 weeks
How it was run: as §3

Setaria viridis (SETVI) [15] = assay: as above; conditions: visual scoring vs untreated control after about 3 weeks
How it was run: as §3

Stellaria media (STEME) [16] = assay: as above; conditions: visual scoring vs untreated control after about 3 weeks
How it was run: as §3

Veronica persica (VERPE) [17] = assay: as above; conditions: visual scoring vs untreated control after about 3 weeks
How it was run: as §3

[18] = test system: Abutilon theophrasti (ABUTH); assay: Pre-emergence herbicide efficacy at 80 g/ha, greenhouse pot test; conditions: visual scoring vs untreated control after about 3 weeks
How it was run: (§4)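 Seeds were sown in pots and covered with soil, then the compound (WP or EC formulation) was sprayed onto the soil surface as an aqueous suspension or emulsion with 0.5% additive. Pots were kept in a greenhouse, and after about 3 weeks activity was scored visually versus untreated controls (100% = plants dead, 0% = like control).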

[19] = test system: Alopecurus myosuroides (ALOMY); assay: as above; conditions: visual scoring vs untreated control after about 3 weeks
How it was run: as §4

[20] = test system: Amaranthus retroflexus (AMARE); assay: as above; conditions: visual scoring vs untreated control after about 3 weeks
How it was run: as §4

[21] = test system: Echinochloa crus-galli (ECHCG); assay: as above; conditions: visual scoring vs untreated control after about 3 weeks
How it was run: as §4

Ipomoea purpurea (PHBPU) = assay: as above; conditions: visual scoring vs untreated control after about 3 weeks
How it was run: as §4

[22] = test system: Matricaria inodora (MATIN); assay: as above; conditions: visual scoring vs untreated control after about 3 weeks
How it was run: as §4

[23] = test system: Polygonum convolvulus (POLCO); assay: as above; conditions: visual scoring vs untreated control after about 3 weeks
How it was run: as §4

Setaria viridis (SETVI) [24] = assay: as above; conditions: visual scoring vs untreated control after about 3 weeks
How it was run: as §4

Veronica persica (VERPE) [25] = assay: as above; conditions: visual scoring vs untreated control after about 3 weeks
How it was run: as §4

Viola tricolor (VIOTR) = assay: as above; conditions: visual scoring vs untreated control after about 3 weeks
How it was run: as §4

[26] = test system: Polygonum convolvulus (POLCO); assay: Post-emergence herbicidal efficacy at 80 g/ha, greenhouse pot test; conditions: visual rating vs untreated control after about 3 weeks
How it was run: as §2

Lolium rigidum (LOLRI) = assay: Pre-emergence herbicide efficacy at 320 g/ha, greenhouse pot test; conditions: visual scoring vs untreated control after about 3 weeks
How it was run: as §3

Structure (SMILES) | Post-emergence efficacy against Abutilon theophrasti (ABUTH) [1] [%] | Post-emergence efficacy against Amaranthus retroflexus (AMARE) [2] [%] | Post-emergence efficacy against Poa annua (POAAN) (Poa annua (POAAN) [4]) [%] | Post-emergence action against Stellaria media (STEME) (Stellaria media (STEME) [5]) [%] | Post-emergence efficacy against Veronica persica (VERPE) (Veronica persica (VERPE) [6]) [%] | Post-emergence efficacy against Amaranthus retroflexus (AMARE) [7] [%] | Post-emergence efficacy against Setaria viridis (SETVI) (Setaria viridis (SETVI) [8]) [%] | Pre-emergence efficacy against Abutilon theophrasti (ABUTH) [9] [%] | Pre-emergence efficacy against Amaranthus retroflexus (AMARE) [10] [%] | Pre-emergence efficacy against Bassia scoparia (KCHSC) (Bassia scoparia (KCHSC) [11]) [%] | Pre-emergence efficacy against Echinochloa crus-galli (ECHCG) [12] [%] | Pre-emergence efficacy against Matricaria inodora (MATIN) [13] [%] | Pre-emergence efficacy against Poa annua (POAAN) (Poa annua (POAAN) [14]) [%] | Pre-emergence efficacy against Setaria viridis (SETVI) (Setaria viridis (SETVI) [15]) [%] | Pre-emergence efficacy against Stellaria media (STEME) (Stellaria media (STEME) [16]) [%] | Pre-emergence efficacy against Veronica persica (VERPE) (Veronica persica (VERPE) [17]) [%] | Pre-emergence efficacy against Abutilon theophrasti (ABUTH) [18] [%] | Pre-emergence efficacy against Alopecurus myosuroides (ALOMY) [19] [%] | Pre-emergence efficacy against Amaranthus retroflexus (AMARE) [20] [%] | Pre-emergence efficacy against Echinochloa crus-galli (ECHCG) [21] [%] | also measured
Cc1cc(C)c(-n2cc(Br)cn2)c(Oc2ncc(F)cn2)n1 [Example I-277] | 90 | 100 | 90 | 90 | 90 | 80 | 80 | 100 | 100 | 100 | 100 | 90 | 100 | 100 | 100 | 100 | 90 | 80 | 100 | 100 | Post-emergence efficacy against Bassia scoparia (KCHSC) (Bassia scoparia (KCHSC) [3]): 100%; Pre-emergence efficacy against Ipomoea purpurea (PHBPU) (Ipomoea purpurea (PHBPU)): 100%; Pre-emergence efficacy against Matricaria inodora (MATIN) [22]: 100%; Pre-emergence efficacy against Polygonum convolvulus (POLCO) [23]: 100%; Pre-emergence efficacy against Setaria viridis (SETVI) (Setaria viridis (SETVI) [24]): 100%; Pre-emergence efficacy against Veronica persica (VERPE) (Veronica persica (VERPE) [25]): 80%; Pre-emergence efficacy against Viola tricolor (VIOTR) (Viola tricolor (VIOTR)): 100%
Cc1cc(C)c(-n2cc(I)cn2)c(Oc2ncc(F)cn2)n1 [Example I-294] | 90 | 100 | 90 | 100 | 100 | 80 | 90 | 100 | 100 | 100 | 100 | 100 | 100 | 100 | 100 | 100 | 90 | 90 | 100 | 90 | Post-emergence efficacy against Polygonum convolvulus (POLCO) [26]: 80%; Pre-emergence efficacy against Lolium rigidum (LOLRI) (Lolium rigidum (LOLRI)): 100%; Pre-emergence efficacy against Ipomoea purpurea (PHBPU) (Ipomoea purpurea (PHBPU)): 100%; Pre-emergence efficacy against Matricaria inodora (MATIN) [22]: 100%; Pre-emergence efficacy against Polygonum convolvulus (POLCO) [23]: 90%; Pre-emergence efficacy against Setaria viridis (SETVI) (Setaria viridis (SETVI) [24]): 100%; Pre-emergence efficacy against Viola tricolor (VIOTR) (Viola tricolor (VIOTR)): 100%

Source: US20230303549A1, “SUBSTITUTED HETEROARYLOXYPYRIDINES, THE SALTS THEREOF AND THEIR USE AS HERBICIDAL AGENTS” (Bayer Aktiengesellschaft, priority 2020, published 2023)
